Laboratory results as given in publication PMC6271395, “Synthesis and Biological Activities of Some New (N^α-Dinicotinoyl)-bis-L-Leucyl Linear and Macrocyclic Peptides” (Molecules, 2014).

Assays:
[1] = system: Bacillus subtilis; test: Agar diffusion antimicrobial test, Bacillus subtilis; type: cell-based; conditions: Gram+ve, modified Kirby–Bauer disk diffusion, 10 µg/mL
Method: (§1) The newly synthesized compounds 3–12 were tested for their preliminary antimicrobial activity against different microorganisms representing Gram-positive (Bacillus subtilis, Bacillus aureus and Staphylococcus aureus), Gram-negative bacteria (Escherichia coli), yeast (Candida albican) and fungi (Aspergillus niger).
(§2) The antimicrobial activities of the synthesized compounds were determined by the agar diffusion method as recommended by the national committee for clinical laboratory standards (NCCLS). The concentrations of the tested compounds (10 µg/mL) were used according to modified Kirby–Bauer’s disk diffusion method. The degree of inhibition is measured in comparison with that of chloramphinicol and fusidic acid taken as standards.

[2] = system: Escherichia coli; test: Agar diffusion antimicrobial test, Escherichia coli; type: cell-based; conditions: Gram−ve, modified Kirby–Bauer disk diffusion, 10 µg/mL
Method: as §1, §2

[3] = system: Bacillus aureus; test: Agar diffusion antimicrobial test, Bacillus aureus; type: cell-based; conditions: Gram+ve, modified Kirby–Bauer disk diffusion, 10 µg/mL
Method: as §1, §2

[4] = system: Aspergillus niger; test: Agar diffusion antimicrobial test, Aspergillus niger; type: cell-based; conditions: Fungi, modified Kirby–Bauer disk diffusion, 10 µg/mL
Method: as §1, §2

[5] = system: Staphylococcus aureus; test: Agar diffusion antimicrobial test, Staphylococcus aureus; type: cell-based; conditions: Gram+ve, modified Kirby–Bauer disk diffusion, 10 µg/mL
Method: as §1, §2

[6] = system: Candida albicans; test: Agar diffusion antimicrobial test, Candida albicans; type: cell-based; conditions: Yeast, modified Kirby–Bauer disk diffusion, 10 µg/mL
Method: as §1, §2

[7] = system: plasma PGE2; test: Inhibition of plasma PGE2 (EIA) in carrageenan-challenged rats; type: in vivo, rat; conditions: rats n = 8, blood four hours after drug administration, PGE2 EIA kit
Method: (§3) For the determination of the antiphlogistic potency of the synthesized compounds, two standard tests were realized at a dose level 2.5 and 5 mg/kg body weight of the rats, namely the protection against carrageenan-induced edema according to Winter et al. and the inhibition of plasma PGE2. The latter is known as a good confirming indicator for carrageenan-induced rat paw edema. […] For these compounds, a similar activity profile was realized for the inhibition of plasma PGE2.
(§4) Groups of adult male albino rats (150–180 g), each of eight animals were orally dosed with tested compounds at a dose level of 2.5–5 mg/kg one hour before carrageenan challenge. Foot paw edema was induced by subplantar injection of 0.05 cm^3 of a 1% suspension of carrageenan in saline into the plantar tissue of one hind paw. An equal volume of saline was injected to the other hand paw and served as control. Four hours after drug administration the animals were decapitated, blood was collected, and the paws were rapidly excised. The average weight of edema was examined for the treated as well as the control group and the percentage inhibition of weight of edema was also evaluated. Diclofenac potassium (5 mg/kg) was employed as standard reference against which the tested compounds were compared (Table 2).
Heparinized blood samples were collected from rats (n = 8), plasma was separated by centrifugation at 12,000 g for 2 min at […], immediately frozen, and stored at […] until use. The design correlate EIA prostaglandin E2 (PGE2) kit (Aldrich, Steinheim, Germany) is a competitive immuno assay for the quantitative determination of PGE2 in biological fluids. The kit uses a monoclonal antibody to PGE2 to bind, in a competitive manner, the PGE2 in the sample after a simultaneous incubation at room temperature. The excess reagents were washed away and the substrate was added, after a short incubation time the enzyme reaction was stopped, and the yellow color generated was read on a microplate reader DYNATech, MR 5000 at 405 nm (Dynatech Industries Inc., McLean, VA, USA). The intensity of the bound yellow color is inversely proportional to the concentration of PGE2 in either standard or samples.

[8] = system: carrageenan-induced edema; test: Carrageenan-induced edema (rat paw test); type: in vivo; conditions: one hour before carrageenan, male albino rats, eight animals per group, paws excised four hours after drug administration
Method: as §3, §4

Row | Molecule | Inhibition Zome, Bacillus subtilis [1] | Inhibition Zome, Escherichia coli [2] | Inhibition Zome, Bacillus aureus [3] | Inhibition Zome, Aspergillus niger [4] | Inhibition Zome, Staphylococcus aureus [5] | Inhibition Zome, Candida albicans [6] | % Inhibition of Plasma PGE2 ([7]; dose 2.5 mg/kg oral) | % Inhibition of Plasma PGE2 ([7]; dose 5.0 mg/kg oral) | % Protection against Edema ([8]; dose 2.5 mg/kg oral) | % Protection against Edema ([8]; dose 5.0 mg/kg oral)
1 | 2,6-Bis {N-[1-{(2E)-2-[1-(4-nitrophenyl)ethylidene]hydrazinyl}-4-methyl-1-oxopentan]-3-carboxamido}pyridine [Compound 9c] | 1.72 cm | 0.60 cm | 1.22 cm | 1.76 cm | 1.66 cm | – | – | – | – | –
2 | 2,6-Bis {N-{(2R)-1-[2-(4-chlorobenzylidene)hydrazinyl]-4-methyl-1-oxopentan]-3-carboxamido}-pyridine [Compound 10e] | 1.65 cm | 0.78 cm | 1.96 cm | 1.48 cm | 1.80 cm | 0.94 cm | – | – | – | –
3 | 2,6-Bis {N-{(2R)-1-[2-(4-methoxybenzylidene)hydrazinyl]-4-methyl-1-oxopentan]-3-carboxamido}-pyridine [Compound 10c] | 1.76 cm | 0.80 cm | 1.56 cm | 1.95 cm | 1.64 cm | 1.00 cm | – | – | – | –
4 | 2,6-Bis {N-{(2R)-1-[2-(4-methylbenzylidene)hydrazinyl]-4-methyl-1-oxopentan]-3-carboxamido}-pyridine [Compound 10b] | 1.80 cm | 0.78 cm | 1.95 cm | 1.56 cm | 1.85 cm | 0.95 cm | – | – | – | –
5 | 2,6-Bis[(N-[4-methyl-1-(1H-benzo[de]isoquinoline-1,3(2H)-dion)-pentan]-3-carboxamido]pyridine [Compound 8] | 1.90 cm | 0.90 cm | 1.94 cm | 2.00 cm | 1.95 cm | 0.98 cm | 57.57 ± 0.045% | 76.00 ± 0.035% | 78.88 ± 0.090% | 92.00 ± 0.060%
6 | 2,6-Bis[(N-[4-methyl-1-(4,5,6,7-tetrachloro-1H-isoindole-1,3(2H)-dion)-pentan]-3-carboxamido]-pyridine [Compound 7b] | 1.46 cm | 0.66 cm | 1.80 cm | 1.95 cm | 1.45 cm | – | – | – | – | –
7 | O=C(N[C@H](CO)[C@H](O)c1ccc([N+](=O)[O-])cc1)C(Cl)Cl [Chloramphenicol, reference compound] | 2.00 cm | 0.95 cm | 2.10 cm | – | 2.00 cm | – | – | – | – | –
